Measured values as given in US20240092756A1, “METHODS AND COMPOSITION FOR KRAS MODIFICATIONS” (2692372 ONTARIO, INC., priority 2020, published 2024).

Columns and labels:
KRAS G12C Lite = KRAS G12C Lite (Homo sapiens, UniProt P01116, C118S/C51S/C80S/G12C/S136P/S39C); experiment: Differential scanning fluorimetry, KRAS G12C Lite; format: binding; parameters: key: Y: protein destabilized; N: protein not destabilized; conditions: 37° C. 5 hours incubation
Procedure: (§1) KRas proteins at 0.05 mg/ml in buffer Hepes, 147 mM NaCl, 2% glycerol, 5 mM MgCl2, 1 mM EDTA, 10 μM GDP, pH 8.0 were incubated in the presence desired concentration of compounds (5% DMSO final concentration) at 37° C. for 5 hours. After incubation, Sypro Oange to a final concentration of 5× was added to each sample. 20 μl aliquots of samples were transferred PCR tubes, sealed with caps, and run in a BioRad CFX96 RTPCR thermocycler. In the instrument, the samples were heated at a rate of 1° C./min from 25 to 90 degrees. Fluorescence readings were taken every 1 degree. The data generated was exported and analyzed using GraphPad-Prism software. The denaturation curves were fit using a Boltzmann sigmoidal equation to calculate melting temperatures (Tm).

[1] = target: T1, KRAS G12C (SEQ ID NO:1 or SEQ ID NO:2) (Homo sapiens, UniProt P01116, G12C); experiment: Intact mass analysis (LC-MS) of covalent modification, KRAS G12C; format: binding; parameters: key to KRAS G12C Modification: b: KRAS G12C modified; conditions: for KRAS G12C Modification: intact mass spectrometry, covalent modification of KRAS G12C FL; for covalent adduct mass, His-tagged KRAS G12C: modification by one molecule of compound
T1 construct: purchased
Procedure: (§2) The covalent modification of the proteins with the compounds were evaluated using intact mass analysis by liquid chromatography-mass spectrometry instrument (LC-MS/MS).
(§3) The reaction solution (20 μL) was prepared in 96-well plate and contained the protein (2 μM), the compound (100 μM), HEPES buffer (20 mM, pH 8), 2% DMSO, 2% glycerol, and 150 mM NaCl. The reaction was allowed to proceed for 24 h at 25° C. The reaction solution (1 μL) was injected into the LC/MS/MS without any further sample preparation.
(§4) The LC-MS/MS instrument comprises of a Waters G2-XS quadrupole-time of flight (QTof) mass spectrometer and a Waters Acuity I-class Ultra-High Performance Liquid Chromatography (UPLC) system. The I-class UPLC system includes a binary solvent manager (BSM), and an Acquity sample manager (SM). The mobile phase consisted of: A) 0.1% (v/v) formic acid in MilliQ water; B) 0.1% (v/v) formic acid acetonitrile. Gradients were run over 5 min and proceeded as follows: A:B, 85:15, 0.0-0.7 min, 85:15→15:85, 0.7-1.5 min, 10:90, 1.5-4 min, 10:90→85:15, 4-4.5 min, 85:15, 4.5-5 min. The analytical column was a Waters BEH C4 column 1.7 μm (50×1 mm) column with pore sizes of 300 Å. The TOF MS data was collected in positive ion mode (m/z of 400-2000 Da) using MassLynx software (Waters).
(§5) The spectral deconvolution was performed using UNIFI software (Waters). The added mass of the protein upon covalent modification to cysteine residues were specified. Multiple modification of up to 8 cysteine was allowed. All the adducts with signal intensities of <2% of the base peak were ignored. The % modification was calculated as the adduct signal intensity over the total intensities of the protein peaks and the adducts.

[2] = target: KRAS G12C Lite (SEQ ID NO:3) (Homo sapiens, UniProt P01116, C118S/C51S/C80S/G12C/S136P/S39C); experiment: Intact mass analysis (LC-MS) of covalent modification, KRAS G12C Lite; format: binding; parameters: key to KRAS Lite Modification: a: KRAS Lite modified; conditions: for KRAS Lite Modification: intact mass spectrometry, covalent modification of KRAS G12C Lite; for covalent adduct mass, His-tagged KRAS G12C Lite: modification by one molecule of compound
Procedure: as §2, §3, §4, §5

KRAS G12C [3] = target: T2, KRAS G12C (Homo sapiens, UniProt P01116, G12C); experiment: SOS1-catalyzed KRAS coupled nucleotide exchange assay (Alpha technology); format: biochemical; parameters: His; key: A: KRAS G12C bound and modulated; conditions: inhibition of SOS1 mediated KRAS nucleotide exchange
Summary of the method: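 Alpha readout of c-RAF RBD binding to GTP-bound KRAS, normalized to DMSO. Method I: 20 nM GDP-KRAS G12C/C118A with compound 5 min, then 1.25 mM GTP + 500 nM SOS-1 30 min, pH 7.4 HEPES/MgCl2 buffer, 50 nM RBD. Method II: 50 nM GDP-KRAS G12C with compound 2 h, 1 mM GTP + 500 nM SOS-1 30 min, 2.5 nM GST-RBD; RT throughout.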

[4] = tested on: phospho-ERK1/2 in MIA PaCa-2 cells (express KRAS G12C); experiment: ERK1/2 phosphorylation in MIA PaCa-2 cells; format: cell-based, human; parameters: key: X: KRAS G12C bound and modulated in cells
KRAS G12C [5] = target: T2, KRAS G12C; experiment: Differential scanning fluorimetry, KRAS G12C; format: binding; parameters: purchased; key: Y: protein destabilized; N: protein not destabilized; conditions: 37° C. 5 hours incubation
Procedure: as §1

| Compound | KRAS G12C Lite DSF ΔTm (KRAS G12C Lite) | KRAS G12C Modification [1] | KRAS Lite Modification [2] | KRAS-SOS1 Nucleotide Exchange (KRAS G12C [3]) | covalent adduct mass, His-tagged KRAS G12C [1] | covalent adduct mass, His-tagged KRAS G12C Lite [2] | KRAS G12C DSF ΔTm (KRAS G12C [5]) | pERK - MIA PaCa-2 - (6 hours, 5 uM) [4] |
| --- | --- | --- | --- | --- | --- | --- | --- | --- |
| Cc1ccnc(C(C)C)c1-n1c(=O)nc(N2CCN(S(=O)(=O)c3c(F)c(F)c(F)c(F)c3C(F)(F)F)C[C@@H]2C)c2cc(F)c(-c3c(O)cccc3F)nc21 [Compound 6A, 6-fluoro-7-(2-fluoro-6-hydroxyphenyl)-1-(2-isopropyl-4-methylpyridin-3-yl)-4-((S)-2-methyl-4-((2,3,4,5-tetrafluoro-6-(trifluoromethyl)phenyl)sulfonyl)piperazin-1-yl)pyrido[2,3-d]pyrimidin-2(1H)-one] | – | b | a | A | 22,120 Da | 22,229 Da | – | X |
| Cc1ccnc(C(C)C)c1-n1c(=O)nc(N2CCN(S(=O)(=O)c3c(F)c(F)c(F)c(F)c3OCF)C[C@@H]2C)c2cc(F)c(-c3c(O)cccc3F)nc21 [Compound 7A, 6-fluoro-7-(2-fluoro-6-hydroxyphenyl)-1-(2-isopropyl-4-methylpyridin-3-yl)-4-((S)-2-methyl-4-((2,3,4,5-tetrafluoro-6-(fluoromethoxy)phenyl)sulfonyl)piperazin-1-yl)pyrido[2,3-d]pyrimidin-2(1H)-one] | – | b | a | A | 22,100 Da | 22,209 Da | – | X |
| Cc1ccnc(C(C)C)c1-n1c(=O)nc(N2CCN(S(=O)(=O)c3c(F)c(F)c(F)c(F)c3OC(F)F)C[C@@H]2C)c2cc(F)c(Cl)nc21 [Compound 12A, (S)-7-chloro-4-(4-((2-(difluoromethoxy)-3,4,5,6-tetrafluorophenyl)sulfonyl)-2-methylpiperazin-1-yl)-6-fluoro-1-(2-isopropyl-4-methylpyridin-3-yl)pyrido[2,3-d]pyrimidin-2(1H)-one] | Y | b | a | A | – | – | Y | – |
| Cc1ccnc(C(C)C)c1-n1c(=O)nc(N2CC(NS(=O)(=O)c3c(F)c(F)c(F)c(F)c3C(F)(F)F)C2)c2cc(F)c(Cl)nc21 [Compound 13A, N-(1-(7-chloro-6-fluoro-1-(2-isopropyl-4-methylpyridin-3-yl)-2-oxo-1,2-dihydropyrido[2,3-d]pyrimidin-4-yl)azetidin-3-yl)-2,3,4,5-tetrafluoro-6-(trifluoromethyl)benzenesulfonamide] | Y | b | a | A | – | – | Y | – |

Second part, led by results:

| KRAS G12C Lite DSF ΔTm (KRAS G12C Lite) | KRAS G12C Modification [1] | KRAS Lite Modification [2] | KRAS-SOS1 Nucleotide Exchange (KRAS G12C [3]) | covalent adduct mass, His-tagged KRAS G12C [1] | covalent adduct mass, His-tagged KRAS G12C Lite [2] | KRAS G12C DSF ΔTm (KRAS G12C [5]) | Compound | pERK - MIA PaCa-2 - (6 hours, 5 uM) [4] |
| --- | --- | --- | --- | --- | --- | --- | --- | --- |
| Y | b | a | A | – | – | – | CN1CCC[C@H]1COc1nc2c(c(N3CCN(S(=O)(=O)c4c(F)c(F)c(F)c(F)c4C(F)(F)F)CC3)n1)CCN(c1cccc3cccc(Cl)c13)C2 (stereo in doubt) [Compound 42A, (7R)-7-(8-chloro-1-naphthyl)-2-[[(1S,2S)-1-methylpyrrolidin-2-yl]methoxy]-4-[4-[2,3,4,5-tetrafluoro-6-(trifluoromethyl)phenyl]sulfonylpiperazin-1-yl]-6,8-dihydro-5H-pyrido[3,4-d]pyrimidine] | – |
| Y | b | a | – | – | – | Y | Cc1ccnc(C(C)C)c1-n1c(=O)nc(N2CCN(S(=O)(=O)c3c(F)c(F)c(F)c(F)c3C(F)(F)F)C[C@@H]2C)c2cc(F)c(Cl)nc21 [Compound 11A, 7-chloro-6-fluoro-1-(2-isopropyl-4-methylpyridin-3-yl)-4-((S)-2-methyl-4-((2,3,4,5-tetrafluoro-6-(trifluoromethyl)phenyl)sulfonyl)piperazin-1-yl)pyrido[2,3-d]pyrimidin-2(1H)-one] | – |
